According to patent US20240239861A1, “GLUCAGON-RECEPTOR SELECTIVE POLYPEPTIDES AND METHODS OF USE THEREOF” (i2O Therapeutics, Inc., priority 2016, published 2024):
Where a SMILES comes first, the peptide text is derived from it. [ ]: non-standard residue; d: D form. Aib = CC(C)(N)C(=O)O

What was measured:
human GLP-1R = human GLP-1R (Homo sapiens, UniProt P43220); assay: Peptide-receptor mediated cAMP accumulation (LANCE Ultra cAMP) in CHO-K1 cells transfected with human GLP-1R; assay type: cell-based; details: hGLP1 pEC50 (cAMP mean (n = 3): 11 point curve starting at 1 nM, Table 3)
human GCGR = human GCGR (Homo sapiens, UniProt P47871); assay: Peptide-receptor mediated cAMP accumulation (LANCE Ultra cAMP) in CHO-K1 cells transfected with human GCGR; assay type: cell-based; details: Table 3
Chain of human GCGR (P47871 26-477): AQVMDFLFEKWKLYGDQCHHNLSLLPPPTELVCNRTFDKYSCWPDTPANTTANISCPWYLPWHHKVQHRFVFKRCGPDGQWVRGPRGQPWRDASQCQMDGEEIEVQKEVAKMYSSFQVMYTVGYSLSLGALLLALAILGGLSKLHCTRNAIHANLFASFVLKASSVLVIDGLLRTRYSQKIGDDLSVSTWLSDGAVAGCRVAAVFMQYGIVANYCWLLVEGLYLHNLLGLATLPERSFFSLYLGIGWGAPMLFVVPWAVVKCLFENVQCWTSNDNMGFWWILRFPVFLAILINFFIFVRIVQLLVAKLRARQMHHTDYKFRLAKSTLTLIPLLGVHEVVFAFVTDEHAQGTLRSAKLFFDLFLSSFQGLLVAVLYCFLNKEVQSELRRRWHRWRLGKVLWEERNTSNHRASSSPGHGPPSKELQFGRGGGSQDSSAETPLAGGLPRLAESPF

Chain of human GLP-1R (P43220 24-463): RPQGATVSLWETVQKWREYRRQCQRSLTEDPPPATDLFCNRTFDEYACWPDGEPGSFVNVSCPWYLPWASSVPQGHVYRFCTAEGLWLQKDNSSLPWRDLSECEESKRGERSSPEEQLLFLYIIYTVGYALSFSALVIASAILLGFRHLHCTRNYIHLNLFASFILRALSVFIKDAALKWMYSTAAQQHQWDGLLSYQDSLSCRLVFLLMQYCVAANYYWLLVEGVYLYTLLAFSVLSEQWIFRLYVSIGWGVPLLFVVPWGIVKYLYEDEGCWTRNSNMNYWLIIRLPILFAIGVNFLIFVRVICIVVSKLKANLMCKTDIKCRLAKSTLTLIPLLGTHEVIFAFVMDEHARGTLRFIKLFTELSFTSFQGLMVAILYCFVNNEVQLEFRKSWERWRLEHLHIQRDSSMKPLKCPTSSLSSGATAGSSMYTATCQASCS

SMILES | EC50 (human GLP-1R) [nM] | EC50 (human GCGR) [nM]
CC(C)C[C@H](NC(=O)[C@H](Cc1c[nH]c2ccccc12)NC(=O)[C@H](CCCCN)NC(=O)[C@H](CO)NC(=O)[C@H](Cc1c[nH]cn1)NC(=O)[C@H](CC(=O)O)NC(=O)[C@H](CO)NC(=O)[C@@H](NC(=O)[C@H](Cc1ccccc1)NC(=O)[C@@H](NC(=O)CNC(=O)[C@H](Cc1c[nH]cn1)NC(=O)[C@H](CO)NC(=O)[C@@H](N)Cc1ccc(O)cc1)[C@@H](C)O)[C@@H](C)O)C(=O)N[C@@H](CC(=O)O)C(=O)N[C@@H](CO)C(=O)N[C@@H](C)C(=O)N[C@@H](CCCNC(=N)N)C(=O)N[C@@H](C)C(=O)N[C@@H](CCC(N)=O)C(=O)N[C@@H](CCC(=O)O)C(=O)N[C@@H](Cc1ccccc1)C(=O)N[C@H](C(=O)N[C@@H](CCCCN)C(=O)N[C@@H](Cc1c[nH]c2ccccc12)C(=O)N[C@@H](CC(C)C)C(=O)N[C@@H](CCC(=O)O)C(=O)N[C@@H](CC(=O)O)C(=O)N[C@@H](CCC(=O)O)C(=O)N1CCC[C@H]1C(=O)N[C@@H](CO)C(=O)N[C@@H](CO)C(=O)NCC(=O)N[C@@H](C)C(=O)N1CCC[C@H]1C(=O)N1CCC[C@H]1C(=O)N1CCC[C@H]1C(=O)N[C@@H](CO)C(=O)O)C(C)C [Compound A40] (H-YSHGTFTSDHSKWLDSARAQEFVKWLEDEPSSGAPPPS-OH; N-terminus assumed) | > 1 | 0.0794
CC(C)C[C@H](NC(=O)[C@H](Cc1c[nH]c2ccccc12)NC(=O)[C@H](CCCCN)NC(=O)[C@H](CO)NC(=O)[C@H](Cc1c[nH]cn1)NC(=O)[C@H](CC(=O)O)NC(=O)[C@H](CO)NC(=O)[C@@H](NC(=O)[C@H](Cc1ccccc1)NC(=O)[C@@H](NC(=O)CNC(=O)[C@H](Cc1c[nH]cn1)NC(=O)[C@@H](NC(=O)[C@@H](N)Cc1ccc(O)cc1)[C@@H](C)O)[C@@H](C)O)[C@@H](C)O)C(=O)N[C@@H](CC(=O)O)C(=O)N[C@@H](CCC(=O)O)C(=O)N[C@@H](C)C(=O)N[C@@H](CCCNC(=N)N)C(=O)N[C@@H](C)C(=O)N[C@@H](CCC(N)=O)C(=O)N[C@@H](CCC(=O)O)C(=O)N[C@@H](Cc1ccccc1)C(=O)N[C@H](C(=O)N[C@@H](CCCCN)C(=O)N[C@@H](Cc1c[nH]c2ccccc12)C(=O)N[C@@H](CC(C)C)C(=O)N[C@@H](CCC(=O)O)C(=O)N[C@@H](CC(=O)O)C(=O)N[C@@H](CCC(=O)O)C(=O)N1CCC[C@H]1C(=O)N[C@@H](CO)C(=O)N[C@@H](CO)C(=O)NCC(=O)N[C@@H](C)C(=O)N1CCC[C@H]1C(=O)N1CCC[C@H]1C(=O)N1CCC[C@H]1C(=O)N[C@@H](CO)C(=O)O)C(C)C [Compound A41] (H-YTHGTFTSDHSKWLDEARAQEFVKWLEDEPSSGAPPPS-OH; N-terminus assumed) | > 1 | 0.631
CC(C)C[C@H](NC(=O)[C@H](Cc1c[nH]c2ccccc12)NC(=O)[C@H](CCCCN)NC(=O)[C@H](CO)NC(=O)[C@H](Cc1ccc(O)cc1)NC(=O)[C@H](CC(=O)O)NC(=O)[C@H](CO)NC(=O)[C@@H](NC(=O)[C@H](Cc1ccccc1)NC(=O)[C@@H](NC(=O)CNC(=O)[C@H](Cc1c[nH]cn1)NC(=O)[C@@H](NC(=O)[C@@H](N)Cc1ccc(O)cc1)[C@@H](C)O)[C@@H](C)O)[C@@H](C)O)C(=O)N[C@@H](CC(=O)O)C(=O)N[C@@H](CO)C(=O)N[C@@H](CCCCN)C(=O)N[C@@H](CCCNC(=N)N)C(=O)N[C@@H](C)C(=O)N[C@@H](CCC(N)=O)C(=O)N[C@@H](CCC(=O)O)C(=O)N[C@@H](Cc1ccccc1)C(=O)N[C@H](C(=O)N[C@@H](CCCCN)C(=O)N[C@@H](Cc1c[nH]c2ccccc12)C(=O)N[C@@H](CC(C)C)C(=O)N[C@@H](CCC(=O)O)C(=O)N[C@@H](CC(=O)O)C(=O)N[C@@H](CCC(=O)O)C(=O)N1CCC[C@H]1C(=O)N[C@@H](CO)C(=O)N[C@@H](CO)C(=O)NCC(=O)N[C@@H](C)C(=O)N1CCC[C@H]1C(=O)N1CCC[C@H]1C(=O)N1CCC[C@H]1C(=O)N[C@@H](CO)C(=O)O)C(C)C [Compound A42] (H-YTHGTFTSDYSKWLDSKRAQEFVKWLEDEPSSGAPPPS-OH; N-terminus assumed) | > 1 | 0.398
CC(C)C[C@H](NC(=O)[C@H](Cc1ccc(O)cc1)NC(=O)[C@H](CCCCN)NC(=O)[C@H](CO)NC(=O)[C@H](Cc1ccc(O)cc1)NC(=O)[C@H](CC(=O)O)NC(=O)[C@H](CO)NC(=O)[C@@H](NC(=O)[C@H](Cc1ccccc1)NC(=O)[C@@H](NC(=O)CNC(=O)[C@H](Cc1c[nH]cn1)NC(=O)[C@H](CO)NC(=O)[C@@H](N)Cc1ccc(O)cc1)[C@@H](C)O)[C@@H](C)O)C(=O)N[C@@H](CC(=O)O)C(=O)NC(C)(C)C(=O)N[C@@H](CCCCN)C(=O)N[C@@H](CCCNC(=N)N)C(=O)N[C@@H](C)C(=O)N[C@@H](CCC(N)=O)C(=O)N[C@@H](CCC(=O)O)C(=O)N[C@@H](Cc1ccccc1)C(=O)N[C@H](C(=O)NC(C)(C)C(=O)N[C@@H](Cc1c[nH]c2ccccc12)C(=O)N[C@@H](CC(C)C)C(=O)N[C@@H](CCC(=O)O)C(=O)N[C@@H](CC(=O)O)C(=O)N[C@@H](CCC(=O)O)C(=O)N[C@@H](CCCCN)C(=O)N[C@@H](CCCNC(=N)N)C(=O)N[C@@H](CC(N)=O)C(=O)N[C@@H](CCCCN)C(=O)N1CCC[C@H]1C(=O)N1CCC[C@H]1C(=O)N1CCC[C@H]1C(=O)N[C@@H](C)C(=O)O)C(C)C [Compound A45] (H-YSHGTFTSDYSKYLD[Aib]KRAQEFV[Aib]WLEDEKRNKPPPA-OH; N-terminus assumed) | > 1 | 0.002
CC(C)C[C@H](NC(=O)[C@H](Cc1ccc(O)cc1)NC(=O)[C@H](CCCCN)NC(=O)[C@H](CO)NC(=O)[C@H](Cc1ccc(O)cc1)NC(=O)[C@H](CC(=O)O)NC(=O)[C@H](CO)NC(=O)[C@@H](NC(=O)[C@H](Cc1ccccc1)NC(=O)[C@@H](NC(=O)CNC(=O)[C@H](Cc1c[nH]cn1)NC(=O)[C@H](CO)NC(=O)[C@@H](N)Cc1ccc(O)cc1)[C@@H](C)O)[C@@H](C)O)C(=O)N[C@@H](CC(=O)O)C(=O)NC(C)(C)C(=O)N[C@@H](CCCCN)C(=O)N[C@@H](CCCNC(=N)N)C(=O)N[C@@H](C)C(=O)N[C@@H](CCC(N)=O)C(=O)N[C@@H](CCC(=O)O)C(=O)N[C@@H](Cc1ccccc1)C(=O)N[C@H](C(=O)NC(C)(C)C(=O)N[C@@H](Cc1c[nH]c2ccccc12)C(=O)N[C@@H](CC(C)C)C(=O)N[C@@H](CCC(=O)O)C(=O)N[C@@H](CC(=O)O)C(=O)N[C@@H](CCC(=O)O)C(=O)N[C@@H](CCCCN)C(=O)N[C@@H](CCCNC(=N)N)C(=O)N[C@@H](CC(N)=O)C(=O)N[C@@H](CCCCN)C(=O)N[C@@H](CC(N)=O)C(=O)N1CCC[C@H]1C(=O)N1CCC[C@H]1C(=O)N[C@@H](CO)C(=O)O)C(C)C [Compound A47] (H-YSHGTFTSDYSKYLD[Aib]KRAQEFV[Aib]WLEDEKRNKNPPS-OH; N-terminus assumed) | > 1 | 0.00316
CC(C)C[C@H](NC(=O)[C@H](Cc1ccc(O)cc1)NC(=O)[C@H](CCCCN)NC(=O)[C@H](CO)NC(=O)[C@H](Cc1ccc(O)cc1)NC(=O)[C@H](CC(=O)O)NC(=O)[C@H](CO)NC(=O)[C@@H](NC(=O)[C@H](Cc1ccccc1)NC(=O)[C@@H](NC(=O)CNC(=O)[C@H](Cc1c[nH]cn1)NC(=O)[C@H](CO)NC(=O)[C@@H](N)Cc1ccc(O)cc1)[C@@H](C)O)[C@@H](C)O)C(=O)N[C@@H](CC(=O)O)C(=O)NC(C)(C)C(=O)N[C@@H](CCCCN)C(=O)N[C@@H](CCCNC(=N)N)C(=O)N[C@@H](C)C(=O)N[C@@H](CCC(N)=O)C(=O)N[C@@H](CCC(=O)O)C(=O)N[C@@H](Cc1ccccc1)C(=O)N[C@H](C(=O)NC(C)(C)C(=O)N[C@@H](Cc1c[nH]c2ccccc12)C(=O)N[C@@H](CC(C)C)C(=O)N[C@@H](CCC(=O)O)C(=O)N[C@@H](CC(=O)O)C(=O)N[C@@H](CCC(=O)O)C(=O)N[C@@H](CCCCN)C(=O)N[C@@H](CCCNC(=N)N)C(=O)N[C@@H](CC(N)=O)C(=O)N[C@@H](CCCCN)C(=O)N1CCC[C@H]1C(=O)N1CCC[C@H]1C(=O)N1CCC[C@H]1C(=O)N[C@@H](CO)C(=O)O)C(C)C [Compound A50] (H-YSHGTFTSDYSKYLD[Aib]KRAQEFV[Aib]WLEDEKRNKPPPS-OH; N-terminus assumed) | > 1 | 0.00316
CC(C)C[C@H](NC(=O)[C@H](Cc1c[nH]c2ccccc12)NC(=O)[C@H](CC(C)C)NC(=O)[C@@H](NC(=O)[C@H](Cc1ccccc1)NC(=O)[C@H](CCC(=O)O)NC(=O)[C@H](CCC(N)=O)NC(=O)[C@H](C)NC(=O)[C@H](CCCNC(=N)N)NC(=O)[C@H](CCCCN)NC(=O)C(C)(C)NC(=O)[C@H](CC(=O)O)NC(=O)[C@H](CC(C)C)NC(=O)[C@H](Cc1ccc(O)cc1)NC(=O)[C@H](CCCCN)NC(=O)[C@H](CO)NC(=O)[C@H](Cc1ccc(O)cc1)NC(=O)[C@H](CC(=O)O)NC(=O)[C@H](CO)NC(=O)[C@@H](NC(=O)[C@H](Cc1ccccc1)NC(=O)[C@@H](NC(=O)CNC(=O)[C@H](Cc1c[nH]cn1)NC(=O)[C@H](CO)NC(=O)[C@@H](N)Cc1ccc(O)cc1)[C@@H](C)O)[C@@H](C)O)C(C)C)C(=O)N[C@@H](CCC(=O)O)C(=O)N[C@@H](CC(=O)O)C(=O)N[C@@H](CCC(=O)O)C(=O)N1CCC[C@H]1C(=O)N[C@@H](CO)C(=O)N[C@@H](CO)C(=O)NCC(=O)N[C@@H](C)C(=O)N1CCC[C@H]1C(=O)N1CCC[C@H]1C(=O)N1CCC[C@H]1C(=O)N[C@@H](CO)C(=O)O [Compound A53] (H-YSHGTFTSDYSKYLD[Aib]KRAQEFVLWLEDEPSSGAPPPS-OH; N-terminus assumed) | > 1 | 0.00251
